# What was measured:
# RAW 264.7 cells [1] = assay: Reporter gene (luciferase) expression assay, lipoplex transfection of RAW 264.7 cells; format: cell-based, murine; details: for in vitro transfection efficiencies relative to control mannosylated lipid 3: DOPE as co-lipid, lipid:DNA charge ratios 2:1 to 8:1, FIG. 4; for transfection efficiencies with DOPC as co-lipid compared to DOPE as co-lipid: lipid:DNA charge ratio of 8:1, FIG. 5
# Description: The liposomes were prepared by the conventional method. Briefly, cationic lipids and co-lipids (Cholesterol, DOPE, DOPC) at 2:1 molar ratios were dissolved in chloroform. The solvent was then evaporated under a thin stream of nitrogen gas, vacuum dried for 8 h and hydrated in deionised water overnight to give a final lipid concentration of 1 mM for in vitro experiments or 5 mM for in vivo experiments. The hydrated lipid film was first vortexed for 30 seconds and then sonicated until clarity using a Branson 450 sonifier at 100% duty cycle and 25 W output power. The resulting clear aqueous liposomes were used in preparing lipoplexes.
# (§1) Cells were seeded at a density of 25000 (for RAW 264.7) per well in a 96-well plate for 18-24 h before the transfection. 0.3 μg (0.9 nmol) of plasmid DNA was complexed with varying amounts of lipids (1 nmol-8 nmol) in serum free medium (total volume made up to 100 μL) for 30 minutes. The charge ratios were varied from 1:1 to 8:1 over these ranges of the lipids. Immediately prior to transfection, cells plated in the 96-well plate were washed with PBS (2×100 μL) followed by the addition of lipoplexes. After 4 h of incubation, the medium was replaced with fresh complete medium containing 10% FBS. The luciferase reporter gene activity was estimated after 24 h. The cells were washed twice with PBS (100 pt each) and lysed in 50 μL lysis buffer. Care was taken to ensure complete lysis. 10 μL Promega luciferase assay buffer was added to the 5 μL lysate in a polystyrene plate and the luciferase activity per well was estimated using a FLx800 microplate luminescence reader (Bio-Tek instruments, INC, UK). Protein concentration in each well was determined by the modified Lowry method (Lundqvist A, et al. J Immunother. 2002, 25, 445-454) and the luciferase activity was expressed as the relative light unit (RLU) per mg of the protein.
# (§2) Each transfection experiment was repeated two times on two different days. The transfection values reported were average values from two replicate transfection plates assayed on the same day. When mannan was used, the cells were pretreated for 30 mins at 37° C., 5% CO2 with mannan (50 μg), and the transfection was carried out in its presence. After 4 h at 37° C., the medium was replaced with fresh complete medium without mannan and the transfection activity was evaluated after 24 h as described above.
# NIH3T3 cells = assay: Transfection of NIH3T3 cells (no mannose receptor) in presence and absence of mannan; format: cell-based, murine; details: DOPE as co-lipid, lipid:DNA ratio 8:1 to 1:1, 50 μg mannan, FIGS. 6-8
# Description: as §1, §2
# [2] = test system: mouse bone marrow derived dendritic cells; assay: DC-transfection with pα5GFP lipoplexes, flow cytometric analysis of GFP expression; format: cell-based, C57BL/6J mice; details: mbmDCs; for efficacies in delivering genes to dendritic cells relative to mannosyl analog 3: flow cytometry (FIG. 11) and fluorescence microscopy (FIG. 12)
# Description: Primary mbmDCs were isolated using a previously described procedure (Inaba K, et al. J Exp Med 1992; 176:1693-1702). Briefly, bone marrow collected from tibias and fibulas of male C57BL/6 mice was passed through a nylon mesh to remove bone and debris, and resuspended in complete DC medium (RPMI-1640 containing 10% FBS, 50 μM β-mercaptoethanol, 2 mM glutamine, 1% NEAA, 20 ng/mL GM-CSF and 10 ng/mL IL-4, 1% antibiotic solution). Cells were supplemented with fresh DC medium every two days. After 6 days, the aggregated cells were dislodged by gently pipetting RPMI over the adherent stroma. The dislodged cells were pulled together and centrifuged at 280 g for […] at room temperature. The supernatant was discarded. The pellets were first resuspended in complete DC medium at 1×10^6 cells/mL and finally placed in 100 mm cell culture petri dishes at 1×10^7 cells/dish in 10 mL medium per dish. After 24 h, the nonadherent cells were collected by gently swirling the dish and were used for transfection and flow cytometry experiments. Cultures were maintained in a humidified atmosphere with 5% CO2 at 37° C.
# First, the transfection efficiency of the lipids 1, 2 & 3 were evaluated in mouse bone marrow derived dendritic cells. To this end, the immature dendritic cells were isolated from the bone marrow of C57BL/6J mice by culturing with GM-CSF and IL-4 following the protocol described above. […] The profiles of the DC markers were monitored by flow cytometry. […] After confirming the presence of these expected DC markers on the surface of the isolated DCs, the transfection efficiencies of the cationic amphiphiles 1, 2 & 3 were evaluated in mbmDCs. […] Lipoplexes containing 3 μg of plasmid DNA encoding green fluorescence protein (pα5GFP) and 8 nmol cationic amphiphiles 1, 2 & 3 were added to the cells and incubated for 4 h at 37° C. in serum free medium with 5% CO2. […] The transfection efficiencies of the cationic amphiphiles 1, 2 & 3 were measured by Flow cytometric analysis.
# [3] = Dendritic cell based genetic immunization (s.c. pre-transfected mbmDCs), anti β-gal antibody ELISA; format: in vivo, C57BL/6J mice; details: s.c. 5×10^5 pre-transfected mbmDCs twice with 7-day interval; sera two weeks after second immunization; Part A, FIG. 13
# Description: The transfected mbmDCs were harvested by DC isolation protocol described above and washed with PBS (2×100 μL). The cells were resuspended in HBSS medium at 5×10^5 cells/100 μL. 6-8 weeks old female C57BL/6J mice (n=5, each weighing 20-22 g) were immunized (s.c.) with 100 μL of transfected mbmDCs (˜5×10^5 cells) twice with a 7-day interval. Two weeks after the second immunization, mice were sacrificed and sera & spleens were collected for immune response assays.
# Anti-β-gal antibodies were measured using an enzyme linked immunosorbent (ELISA) assay as described earlier (McKeever, U. et al. Vaccine 2002; 20:1524-1531). Briefly, 96 well ELISA plates were coated with β-gal protein (0.3 μg per well) using a 5 μg/mL stock solution prepared in PBS. Plates were washed with PBS (3×200 μL) and blocked with 1% BSA in PBS at room temperature for 2 h. The plates were then washed with PBS containing 0.05% Tween-20 (3×200 μL) and incubated with mouse sera (100 μL) at room temperature for 2 h. The plates were again washed with PBS containing 0.05% Tween-20 (3×200 μL) and 100 μL of diluted (1:1000) anti-mouse antibody conjugated to horse radish peroxidase was added to each well. […] The plates were then incubated in dark with 100 μL of ABTS (Calbiochem, USA) per well at 25° C. for 10 min and the absorbance was measured at 405 nm by ELISA reader (Bio-Tek instruments Inc, UK).
# RAW 264.7 cells [4] = assay: Mannose receptor specific transfection of RAW 264.7 cells in presence and absence of mannan; format: cell-based, murine; details: DOPE as co-lipid; lipid:DNA ratio 8:1 to 1:1; 50 μg mannan; FIGS. 6-8
# Description: as §1, §2
Substance,in vitro transfection efficiencies relative to control mannosylated lipid 3 (RAW 264.7 cells [1]),transfection efficiencies with DOPC as co-lipid compared to DOPE as co-lipid (RAW 264.7 cells [1]),transfection efficiency when cells were pretreated with mannan (NIH3T3 cells),efficacies in delivering genes to dendritic cells relative to mannosyl analog 3 [2],anti β-gal antibody responses relative to mannosyl analog 3 [3],transfection efficiencies when cells were pretreated with mannan (RAW 264.7 cells [4]),"DC transfection efficiency (GFP expression by FACS) ([2]; 3 μg pα5GFP plasmid, 8 nmol cationic amphiphile, FIG. 11)"
"2-[(N,N-di-n-hexadecyl-N-methyl)amino]-ethylL-L-lysyl-quinate chloride [lipid 2]",higher in vitro transfection efficiencies than their control mannosylated lipid 3,enhanced further,did not get affected,superior to those of their mannosyl analog 3,higher anti β-gal antibody responses,significantly diminished,–
"2-[(N,N-di-n-hexadecyl-N-methyl)amino]-ethylL-L-lysyl-shikimate chloride [lipid 1]",higher in vitro transfection efficiencies than their control mannosylated lipid 3,enhanced further,did not get affected,superior to those of their mannosyl analog 3,higher anti β-gal antibody responses,significantly diminished,–
"2-[(N,N-di-n-hexadecyl-N-methyl)amino]-ethylL-L-lysyl-β-D-Mannoside chloride [lipid 3, reference compound]",–,enhanced further,did not get affected,–,–,significantly diminished,5%
